Where two headings read alike, the source gives them in different places.
Legend:
[1] = Amount of methionine hydroxy analog bypassing the rumen and available for absorption, summary of experimental evidence; assay type: in vivo, ruminant
From the text: Everything considered, therefore, the amount of the hydroxy analog of methionine which bypasses the rumen and is available for absorption is between about 40% and about 55%.

[2] = female, cow, in vivo
Experimental: (§1) The absorption and metabolism of 2-hydroxy-4-[methylthio]butanoic acid sold by Novus International (St. Louis, Mo. under the Alimet® was measured in four lactating dairy cows fitted with rumen and duodenal T-type cannulae (10 cm distal to the pylorus). The cows were offered a basal diet of barley-based concentrate (Table I) and alfalfa hay. The concentrate was fed at a level of 1 kg for every 2.5 kg of milk produced (Table I) and access to alfalfa hay was ad libitum. In addition, cows received 30 g HMB mixed with 2 kg ground corn grain per day for six days to allow for adaptation of the rumen microflora. Cows were then fed 90 g HMB mixed with the ground corn and were administered 600 ml chromium-EDTA (3 g Cr) (Binnerts et al., “Soluble chromium indicator measured by atomic absorption in digestion experiments” Vet. Rec. (1968) page 470) into the rumen via the rumen cannula. The HMB meal was offered to the cows for 20 minutes prior to the morning feeding and any of the remaining meal was placed in the rumen via the rumen cannula.
(§2) Blood, rumen and duodenal samples were collected at 0, 1, 3, 6, 9, 12 and 24 hours post-HMB-feeding. Blood was collected by jugular veni-puncture into 2×10 ml sterile tubes (Vacutainer Brand SST tubes for serum separation, Bectin Dickenson, Rutherford, N.J.), allowed to stand for 30 minutes in an ice bath and centrifuged at 3000×g to separate the serum from cells. Serum was divided into two fractions. The first fraction was deproteinized by adding an equal volume of acetonitrile and then centrifuging to obtain the supernatant. The deproteinized serum was then frozen (−70° C.) until analysis. A second fraction was not deproteinized but directly frozen (−70° C.). Rumen fluid (100 ml) collected from several sites within the rumen was strained through four layers of cheesecloth and subsampled. The subsample (30 ml) was acidified with 6 M HCl (0.5 ml) and frozen (−40° C.). Duodenal samples collected (100 ml) were also stored frozen (−40° C.). Rumen and duodenal samples were later thawed and centrifuged at 23 000×g, 4° C., for 20 minutes to obtain the clarified supernatant. The clarified rumen and the duodenal samples were then frozen until analysis. Serum was analyzed for methionine and rumen and duodenal samples for HMB. Chromium was measured by atomic absorption spectrophotometry in rumen and duodenal samples that were diluted with an equal volume of a calcium chloride solution to yield samples with approximately 400 ppm Ca^2+ (Williams et al., “The determination of chromic oxide in faeces samples by atomic absorption spectrophotometry” J. Agric. Sci., Vol. 59 (1962) pp. 381-385).
(§3) The slope of the line from the semilogarithmic plot is equal to the fractional rate constant (K). The rate constants were calculated by linear regression of the natural logarithm of Cr and HMB concentration verses time (Table III). Regression analysis of rumen Cr concentration was performed with data for 1 to 24 hours (excluding data for 0 hour).
(§4) Regression analysis for duodenal Cr and HMB concentration included the data for 3 to 24 hours and 3 to 12 hours, respectively. Excluding the data for 1 hour simplified the analysis by omitting the delay for the translocation of digesta from the rumen to the duodenum.

[3] = Lactation study, Alimet in close-up dry period and early lactation diets (Example 2); assay type: in vivo, cows
Experimental: The diets (Table IV) were formulated to include Alimet® to meet the methionine requirements as determined using existing computer modeling technology (CNCPS and DAIRYLP). The diets were balanced to meet amino acid requirements and included standard feed ingredients used in dairy rations. In the absence of added Alimet®, the control diet was predicted to be first limiting in methionine. The estimated need for methionine was approximately 9 grams per day. Alimet® was added assuming an availability to the ruminant of 20%.
This study included 10 multiparous and five primiparous cows per treatment, supplemented with Alimet® for two weeks before calving and for 12 weeks of lactation. […] At peak milk yield, Alimet-fed multiparous cows produced 7.9 kg/d more FCM than unsupplemented cows (42.0 vs 34.1 kg/d). The benefits of supplying post ruminal amino acid would appear to be greatest during the close-up dry period and early lactation.

[4] = in vivo; conditions: female, cow
Experimental: as §1, §2, §3, §4

[5] = Rumen bypass and gastrointestinal availability of HMB in rumen- and duodenum-cannulated lactating dairy cows (Example 1); conditions: for Chromium Concentration: 3 g Cr into rumen
Experimental: as §1, §2, §3, §4

[6] = duodenal fluid, 3 to 24 hours, cow 124
[7] = duodenal fluid, 3 to 24 hours, cow 131
[8] = duodenal fluid, 3 to 24 hours, cow 133
[9] = duodenal fluid, 3 to 24 hours, cow 138
[10] = duodenal fluid, 3 to 24 hours, mean of four cows
[11] = rumen fluid, 1 to 24 hours, cow 24
[12] = rumen fluid, 1 to 24 hours, cow 131
[13] = rumen fluid, 1 to 24 hours, cow 133
[14] = rumen fluid, 1 to 24 hours, cow 138
[15] = rumen fluid, 1 to 24 hours, mean of four cows

CSCCC(O)C(=O)O (stereo not drawn) [HMB, DL, 2-hydroxy-4-[methylthio]butanoic acid]
amount absorbed by the omasum ([1]; additional experimental evidence): about 8.8% | amount which by-passes the rumen ([1]; experimental bypass data and field work with dairy cattle (milk response), molecular basis): at least 40% | amount which bypasses the rumen and is available for absorption ([1]; fed in the absence of a bypass fat, molecular basis, experimental evidence to date): at least 20% | percent of the HMB dose absorbed in the omasum [2]: 8.8% | percent of the HMB dose bypassing the rumen fermentation [2]: 40% | percent of the HMB dose that disappeared (was degraded) in the rumen [2]: 60% | percent of the HMB that passed to the small intestine [2]: 31.2% | rate constant for microbial degradation of HMB within the rumen [2]: −0.1962 | time by which rumen and duodenal HMB and serum methionine had returned to pre-dose levels [2]: ≤ 12 h | time of peak duodenal HMB concentration [2]: 3 h | time of peak ruminal HMB concentration [2]: 1 h | time of peak serum methionine concentration [2]: 6 h | HMB Concentration ([2]; 0 h): <10 µg/mL | increase in serum methionine above pre-dose levels at the peak concentration ([2]; 6 h): 200% | HMB Concentration ([2]; 24 h): <10 µg/mL | more FCM than unsupplemented cows ([3]; multiparous cows at peak milk yield): 7.9 kg/day | FCM production ([3]; multiparous cows at peak milk yield, unsupplemented 34.1): 42.0 kg/day | milk protein content, higher than unsupplemented cows ([3]; supplemented two weeks before calving and 12 weeks of lactation): not | milk fat content ([3]; supplemented two weeks before calving and 12 weeks of lactation, unsupplemented 3.71%): 4.01% | fat-corrected content (FCM) production ([3]; supplemented two weeks before calving and 12 weeks of lactation, unsupplemented 29.2): 33.4 kg/day | milk production ([3]; supplemented two weeks before calving and 12 weeks of lactation, unsupplemented 31.3): 33.9 kg/day | bioavailability [4]: 40% | concentration at 0 h ([4]; HMB Concentration): < 10000 ng/mL | concentration at 24 h ([4]; HMB Concentration): < 10000 ng/mL | concentration at 24 h ([4]; rumen concentration of HMB): < 10000 ng/mL

chromium-EDTA
Chromium Concentration ([5]; duodenal fluid, 0 h, cow 124): 1.36 µg/mL | Chromium Concentration ([5]; duodenal fluid, 0 h, cow 131): 0.05 µg/mL | Chromium Concentration ([5]; duodenal fluid, 0 h, cow 133): 0.05 µg/mL | Chromium Concentration ([5]; duodenal fluid, 0 h, cow 138): 0.02 µg/mL | Constant, linear regression of natural logarithm of Cr concentration versus time [5, 6]: 3.0038 | K (fractional rate constant), Chromium [5, 6]: −.0705 | Constant, linear regression of natural logarithm of Cr concentration versus time [5, 7]: 3.5284 | K (fractional rate constant), Chromium [5, 7]: −.1201 | Constant, linear regression of natural logarithm of Cr concentration versus time [5, 8]: 3.6342 | K (fractional rate constant), Chromium [5, 8]: −.1173 | Constant, linear regression of natural logarithm of Cr concentration versus time [5, 9]: 3.7419 | K (fractional rate constant), Chromium [5, 9]: −.1135 | Constant, linear regression of natural logarithm of Cr concentration versus time [5, 10]: 3.4771 | K (fractional rate constant), Chromium; rate constant for passage of the Cr marker to the duodenum [5, 10]: −.1053 | K (fractional rate constant), Chromium; rate constant for passage of the Cr marker to the duodenum ([5]; duodenal fluid, 3 to 24 hours, mean of four cows, listed as Cr): −0.1053 | Chromium Concentration ([5]; duodenal fluid, 1 h, cow 124): 11.69 µg/mL | Chromium Concentration ([5]; duodenal fluid, 1 h, cow 131): 23.80 µg/mL | Chromium Concentration ([5]; duodenal fluid, 1 h, cow 133): 12.14 µg/mL | Chromium Concentration ([5]; duodenal fluid, 1 h, cow 138): 17.98 µg/mL | Chromium Concentration ([5]; duodenal fluid, 3 h, cow 124): 18.30 µg/mL | Chromium Concentration ([5]; duodenal fluid, 3 h, cow 131): 24.55 µg/mL | Chromium Concentration ([5]; duodenal fluid, 3 h, cow 133): 25.41 µg/mL | Chromium Concentration ([5]; duodenal fluid, 3 h, cow 138): 27.23 µg/mL | Chromium Concentration ([5]; duodenal fluid, 6 h, cow 124): 11.99 µg/mL | Chromium Concentration ([5]; duodenal fluid, 6 h, cow 131): 17.86 µg/mL | Chromium Concentration ([5]; duodenal fluid, 6 h, cow 133): 18.42 µg/mL | Chromium Concentration ([5]; duodenal fluid, 6 h, cow 138): 23.24 µg/mL | Chromium Concentration ([5]; duodenal fluid, 9 h, cow 124): 11.00 µg/mL | Chromium Concentration ([5]; duodenal fluid, 9 h, cow 131): 12.16 µg/mL | Chromium Concentration ([5]; duodenal fluid, 9 h, cow 133): 16.36 µg/mL | Chromium Concentration ([5]; duodenal fluid, 9 h, cow 138): 19.26 µg/mL | Chromium Concentration ([5]; duodenal fluid, 12 h, cow 124): 7.89 µg/mL | Chromium Concentration ([5]; duodenal fluid, 12 h, cow 131): 6.39 µg/mL | Chromium Concentration ([5]; duodenal fluid, 12 h, cow 133): 7.89 µg/mL | Chromium Concentration ([5]; duodenal fluid, 12 h, cow 138): 8.39 µg/mL | Chromium Concentration ([5]; duodenal fluid, 24 h, cow 124): 3.88 µg/mL | Chromium Concentration ([5]; duodenal fluid, 24 h, cow 131): 2.06 µg/mL | Chromium Concentration ([5]; duodenal fluid, 24 h, cow 133): 2.29 µg/mL | Chromium Concentration ([5]; duodenal fluid, 24 h, cow 138): 2.85 µg/mL | Chromium Concentration ([5]; rumen fluid, 0 h, cow 124): 0.04 µg/mL | Chromium Concentration ([5]; rumen fluid, 0 h, cow 131): 0.07 µg/mL | Chromium Concentration ([5]; rumen fluid, 0 h, cow 133): 0.01 µg/mL | Chromium Concentration ([5]; rumen fluid, 0 h, cow 138): 0.02 µg/mL | Constant, linear regression of natural logarithm of Cr concentration versus time [5, 11]: 3.4702 | K (fractional rate constant), Chromium [5, 11]: −.0940 | Constant, linear regression of natural logarithm of Cr concentration versus time [5, 12]: 2.7330 | K (fractional rate constant), Chromium [5, 12]: −.1576 | Constant, linear regression of natural logarithm of Cr concentration versus time [5, 13]: 3.7310 | K (fractional rate constant), Chromium [5, 13]: −.1302 | Constant, linear regression of natural logarithm of Cr concentration versus time [5, 14]: 3.9905 | K (fractional rate constant), Chromium [5, 14]: −.1411 | Constant, linear regression of natural logarithm of Cr concentration versus time [5, 15]: 3.7312 | K (fractional rate constant), Chromium; rate of passage of the liquid marker from the rumen [5, 15]: −.1307 | K (fractional rate constant), Chromium; rate of passage of the liquid marker from the rumen ([5]; rumen fluid, 1 to 24 hours, mean of four cows, listed as Cr): −0.1307 | Chromium Concentration ([5]; rumen fluid, 1 h, cow 124): 31.83 µg/mL | Chromium Concentration ([5]; rumen fluid, 1 h, cow 131): 36.27 µg/mL | Chromium Concentration ([5]; rumen fluid, 1 h, cow 133): 40.44 µg/mL | Chromium Concentration ([5]; rumen fluid, 1 h, cow 138): 45.51 µg/mL | Chromium Concentration ([5]; rumen fluid, 3 h, cow 124): 23.77 µg/mL | Chromium Concentration ([5]; rumen fluid, 3 h, cow 131): 29.11 µg/mL | Chromium Concentration ([5]; rumen fluid, 3 h, cow 133): 34.52 µg/mL | Chromium Concentration ([5]; rumen fluid, 3 h, cow 138): 37.05 µg/mL | Chromium Concentration ([5]; rumen fluid, 6 h, cow 124): 19.29 µg/mL | Chromium Concentration ([5]; rumen fluid, 6 h, cow 131): 18.09 µg/mL | Chromium Concentration ([5]; rumen fluid, 6 h, cow 133): 16.62 µg/mL | Chromium Concentration ([5]; rumen fluid, 6 h, cow 138): 27.94 µg/mL | Chromium Concentration ([5]; rumen fluid, 9 h, cow 124): 12.93 µg/mL | Chromium Concentration ([5]; rumen fluid, 9 h, cow 131): 8.89 µg/mL | Chromium Concentration ([5]; rumen fluid, 9 h, cow 133): 10.79 µg/mL | Chromium Concentration ([5]; rumen fluid, 9 h, cow 138): 13.89 µg/mL | Chromium Concentration ([5]; rumen fluid, 12 h, cow 124): 9.16 µg/mL | Chromium Concentration ([5]; rumen fluid, 12 h, cow 131): 5.04 µg/mL | Chromium Concentration ([5]; rumen fluid, 12 h, cow 133): 7.86 µg/mL | Chromium Concentration ([5]; rumen fluid, 12 h, cow 138): 8.28 µg/mL | Chromium Concentration ([5]; rumen fluid, 24 h, cow 124): 3.62 µg/mL | Chromium Concentration ([5]; rumen fluid, 24 h, cow 131): 1.07 µg/mL | Chromium Concentration ([5]; rumen fluid, 24 h, cow 133): 2.08 µg/mL | Chromium Concentration ([5]; rumen fluid, 24 h, cow 138): 1.97 µg/mL
